Experimental data as given in patent US6372804B1, “Noxious-insect repellent” (Kanebo, Ltd., priority 1991, dated 2002).

Experiments:
[1] = system: imagoes of the tiger mosquito, Aedes albopictus; test: noxious-insect repellency test (treated forearm in a cage of tiger mosquitoes, percent repellency from biting marks); type: in vivo; settings: for Percent repellency: an hour after application; for noxious-insect repelling effect and durability (result in words): lotion or milky lotion containing the compound, tiger mosquito imagoes
Experimental: In each example, the noxious-insect repellency test was conducted as follows:
Test method of noxious-insect repelling effect and durability thereof In order to assess the repelling effect against imagoes of the tiger mosquito, Aedes albopictus, the following test was conducted at a room temperature of 30° C. and a relative humidity of 70% in an air-conditioned room. 10 ml each of test samples was applied to left and right forearms. Each treated forearm was introduced into a wire gauze cage (20 cm L.×15 cm Dia.) containing 50 female and 50 male tiger mosquitoes 5-7 days old after eclosion, for 15 minutes to afford time for biting. The assessment was repeated 30 minutes, 1 hour, 2 hours, 4 hours and 6 hours after the test sample was applied. The number of marks made by biting within each biting time was counted and a percent repellency was calculated using the following formula:
Percent repellency=(X−Y)/X×100 (%)
X: the number of the marks made by biting when the test sample was not applied,
Y: the number of the marks made by biting when the test sample was applied.

[2] = solubility in a 90 wt. % ethanol aqueous solution; type: physicochemical; design: key: ◯: Soluble; X: Insoluble
Experimental: (§1) With the purpose of investigating the properties of the compounds to be used for the present invention, solubilities in a 90 wt. % ethanol aqueous solution and stabilities at 0° C., room temperature and 40° C., of hydroxymethyl-menthol, 2-hydroxymethyl-2-butyl-cyclopentanol and 2-(1-hydroxyisopropyl)-5,6-dimethyl-cyclohexanone, were investigated. […] Furthermore, it can be understood that the quantity of the repellent compound is preferred to be at most 20% by weight, in view of touch in use.

[3] = stability in a 90 wt. % ethanol aqueous solution at 0° C., room temperature and 40° C.; type: physicochemical; design: key: ◯: Stable; X: Precipitated
Experimental: as §1

[4] = content 0.1% (wt. %) in 40 wt. % ethanol aqueous solution
[5] = content 1% (wt. %) in 40 wt. % ethanol aqueous solution
[6] = content 3% (wt. %) in 40 wt. % ethanol aqueous solution
[7] = 0° C., content 10% (wt. %) in 90 wt. % ethanol aqueous solution
[8] = 0° C., content 20% (wt. %) in 90 wt. % ethanol aqueous solution
[9] = 0° C., content 50% (wt. %) in 90 wt. % ethanol aqueous solution
[10] = 0° C., content 90% (wt. %) in 90 wt. % ethanol aqueous solution
[11] = 0° C., content 95% (wt. %) in 90 wt. % ethanol aqueous solution
[12] = 40° C., content 10% (wt. %) in 90 wt. % ethanol aqueous solution
[13] = 40° C., content 20% (wt. %) in 90 wt. % ethanol aqueous solution
[14] = 40° C., content 50% (wt. %) in 90 wt. % ethanol aqueous solution
[15] = 40° C., content 90% (wt. %) in 90 wt. % ethanol aqueous solution
[16] = 40° C., content 95% (wt. %) in 90 wt. % ethanol aqueous solution
[17] = room temperature, content 10% (wt. %) in 90 wt. % ethanol aqueous solution
[18] = room temperature, content 20% (wt. %) in 90 wt. % ethanol aqueous solution
[19] = room temperature, content 50% (wt. %) in 90 wt. % ethanol aqueous solution
[20] = room temperature, content 90% (wt. %) in 90 wt. % ethanol aqueous solution
[21] = room temperature, content 95% (wt. %) in 90 wt. % ethanol aqueous solution

Question: Which Percent repellency [1, 4] does the source give for `CCCCC1(CO)CCCC1O` (stereo not drawn) [2-Hydroxymethyl-2-butyl-cyclopentanol, 2-hydroxymethyl-2-butyl-cyclopentanol] here?
Answer: Its Percent repellency is 24%.

Question: And the Percent repellency [1, 5]?
Answer: Its Percent repellency is 60%.

Question: And the Percent repellency [1, 6]?
Answer: The Percent repellency was 88%.

Question: What about the Solubility [2, 7] of the same molecule?
Answer: The Solubility was “◯”.

Question: What about the Solubility [2, 8] of the same molecule?
Answer: The Solubility was “◯”.

Question: And the Solubility [2, 9]?
Answer: Its Solubility is “◯”.

Question: And the Solubility [2, 10]?
Answer: The Solubility was “◯”.

Question: What about the Solubility [2, 11] of the same molecule?
Answer: Its Solubility is “◯”.

Question: And the Solubility [2, 12]?
Answer: The Solubility was “◯”.

Question: And the Solubility [2, 13]?
Answer: Its Solubility is “◯”.

Question: And the Solubility [2, 14]?
Answer: The Solubility was “◯”.

Question: And the Solubility [2, 15]?
Answer: Its Solubility is “◯”.

Question: And the Solubility [2, 16]?
Answer: The Solubility was “◯”.

Question: And the Solubility [2, 17]?
Answer: Its Solubility is “◯”.

Question: And the Solubility [2, 18]?
Answer: Its Solubility is “◯”.

Question: What about the Solubility [2, 19] of the same molecule?
Answer: Its Solubility is “◯”.

Question: What about the Solubility [2, 20] of the same molecule?
Answer: Its Solubility is “◯”.

Question: And the Solubility [2, 21]?
Answer: The Solubility was “◯”.

Question: And the Stability [3, 7]?
Answer: Its Stability is “◯”.

Question: What about the Stability [3, 8] of the same molecule?
Answer: Its Stability is “◯”.

Question: What about the Stability [3, 9] of the same molecule?
Answer: The Stability was “◯”.

Question: And the Stability [3, 10]?
Answer: Its Stability is “◯”.

Question: What about the Stability [3, 11] of the same molecule?
Answer: Its Stability is “X”.

Question: And the Stability [3, 12]?
Answer: Its Stability is “◯”.

Question: And the Stability [3, 13]?
Answer: Its Stability is “◯”.

Question: What about the Stability [3, 14] of the same molecule?
Answer: Its Stability is “◯”.

Question: What about the Stability [3, 15] of the same molecule?
Answer: The Stability was “◯”.

Question: And the Stability [3, 16]?
Answer: Its Stability is “◯”.

Question: What about the Stability [3, 17] of the same molecule?
Answer: Its Stability is “◯”.

Question: What about the Stability [3, 18] of the same molecule?
Answer: The Stability was “◯”.

Question: And the Stability [3, 19]?
Answer: The Stability was “◯”.

Question: And the Stability [3, 20]?
Answer: Its Stability is “◯”.

Question: And the Stability [3, 21]?
Answer: The Stability was “X”.

Question: Which “noxious-insect repelling effect and durability (result in words)” value [1] does the source give for `CCCCCCCCCCCC1(CO)CCCC1O` (stereo not drawn) [2-hydroxymethyl-2-undecyl-cyclopentanol] here?
Answer: Its value is “excellent noxious-insect repelling effect and durability”.

Question: With `CC1CCC(=O)C(CO)C1C` (stereo not drawn) [2-hydroxymethyl-3,4-dimethyl-cyclohexanone] as the molecule, how does the “noxious-insect repelling effect and durability (result in words)” value [1] read?
Answer: The value was “excellent noxious-insect repelling effect and durability”.

Question: Which “noxious-insect repelling effect and durability (result in words)” value [1] does the source give for `CC(C)(C)C1CCC(O)C(CO)C1` (stereo not drawn) [2-hydroxymethyl-4-(t-butyl)-cyclohexanol] here?
Answer: The value was “excellent noxious-insect repelling effect and durability”.

Question: Which “noxious-insect repelling effect and durability (result in words)” value [1] does the source give for `CC(C)(C)C1CCC(=O)C(CO)C1` (stereo not drawn) [2-hydroxymethyl-4-(t-butyl)-cyclohexanone] here?
Answer: Its value is “excellent noxious-insect repelling effect and durability”.

Question: Which “noxious-insect repelling effect and durability (result in words)” value [1] does the source give for `CCC1CC(O)C(CO)C1` (stereo not drawn) [2-hydroxymethyl-4-ethyl-cyclopentanol] here?
Answer: The value was “excellent noxious-insect repelling effect and durability”.

Question: Which “noxious-insect repelling effect and durability (result in words)” value [1] does the source give for `CCC1CC(=O)C(CO)C1` (stereo not drawn) [2-hydroxymethyl-4-ethyl-cyclopentanone] here?
Answer: The value was “excellent noxious-insect repelling effect and durability”.

Question: For `CC(C)C1CC(C)C(O)C(CO)C1` (stereo not drawn) [2-hydroxymethyl-4-isopropyl-6-methyl-cyclohexanol], which “noxious-insect repelling effect and durability (result in words)” value [1] is on record?
Answer: The value was “excellent noxious-insect repelling effect and durability”.

Question: Which “noxious-insect repelling effect and durability (result in words)” value [1] does the source give for `CC1CC(C(C)C)CC(CO)C1=O` (stereo not drawn) [2-hydroxymethyl-4-isopropyl-6-methyl-cyclohexanone] here?
Answer: The value was “excellent noxious-insect repelling effect and durability”.

Question: With `CC1CCC(=O)C(CO)C1` (stereo not drawn) [2-hydroxymethyl-4-methyl-cyclohexanone] as the molecule, how does the “noxious-insect repelling effect and durability (result in words)” value [1] read?
Answer: The value was “excellent noxious-insect repelling effect and durability”.

Question: Which “noxious-insect repelling effect and durability (result in words)” value [1] does the source give for `O=C1CCCCCCCCCCC1CO` (stereo not drawn) [2-hydroxymethyl-cyclododecanone] here?
Answer: Its value is “excellent noxious-insect repelling effect and durability”.

Question: With `OCC1CCCCCCC1O` (stereo not drawn) [2-hydroxymethyl-cyclooctanol] as the molecule, how does the “noxious-insect repelling effect and durability (result in words)” value [1] read?
Answer: Its value is “excellent noxious-insect repelling effect and durability”.

Question: For `O=C1CCCCCCC1CO` (stereo not drawn) [2-hydroxymethyl-cyclooctanone], which “noxious-insect repelling effect and durability (result in words)” value [1] is on record?
Answer: The value was “excellent noxious-insect repelling effect and durability”.

Question: With `CC(C)C(O)C1C2CCC(C)(C1O)C2(C)C` (stereo not drawn) [3-(1-hydroxy-2-methylpropyl)-borneol] as the molecule, how does the “noxious-insect repelling effect and durability (result in words)” value [1] read?
Answer: The value was “excellent noxious-insect repelling effect and durability”.

Question: For `CC(C)C(O)C1C(=O)C2(C)CCC1C2(C)C` (stereo not drawn) [3-(1-hydroxy-2-methylpropyl)-camphor], which “noxious-insect repelling effect and durability (result in words)” value [1] is on record?
Answer: The value was “excellent noxious-insect repelling effect and durability”.

Question: With `CCCC(O)C1C2CCC(C)(C1O)C2(C)C` (stereo not drawn) [3-(1-hydroxybutyl)-borneol] as the molecule, how does the “noxious-insect repelling effect and durability (result in words)” value [1] read?
Answer: Its value is “excellent noxious-insect repelling effect and durability”.

Question: For `CCCC(O)C1C(=O)C2(C)CCC1C2(C)C` (stereo not drawn) [3-(1-hydroxybutyl)-camphor], which “noxious-insect repelling effect and durability (result in words)” value [1] is on record?
Answer: Its value is “excellent noxious-insect repelling effect and durability”.

Question: Which “noxious-insect repelling effect and durability (result in words)” value [1] does the source give for `CC(O)C1C2CCC(C)(C1O)C2(C)C` (stereo not drawn) [3-(1-hydroxyethyl)-borneol] here?
Answer: The value was “excellent noxious-insect repelling effect and durability”.

Question: With `CC(O)C1C(=O)C2(C)CCC1C2(C)C` (stereo not drawn) [3-(1-hydroxyethyl)-camphor] as the molecule, how does the “noxious-insect repelling effect and durability (result in words)” value [1] read?
Answer: Its value is “excellent noxious-insect repelling effect and durability”.

Question: For `CCCCCC(O)C1C(=O)C2(C)CCC1C2(C)C` (stereo not drawn) [3-(1-hydroxyhexyl)-camphor, reference compound], which “noxious-insect repelling effect and durability (result in words)” value [1] is on record?
Answer: The value was “does not exhibit the repelling effect”.

Question: For `CC12CCC(C(CO)C1=O)C2(C)C` (stereo not drawn) [3-(1-hydroxymethyl)-camphor], which “noxious-insect repelling effect and durability (result in words)” value [1] is on record?
Answer: The value was “excellent noxious-insect repelling effect and durability”.

Question: Which “noxious-insect repelling effect and durability (result in words)” value [1] does the source give for `CCC(O)C1C2CCC(C)(C1O)C2(C)C` (stereo not drawn) [3-(1-hydroxypropyl)-borneol] here?
Answer: The value was “excellent noxious-insect repelling effect and durability”.

Question: Which “noxious-insect repelling effect and durability (result in words)” value [1] does the source give for `CCC(O)C1C(=O)C2(C)CCC1C2(C)C` (stereo not drawn) [3-(1-hydroxypropyl)-camphor] here?
Answer: Its value is “excellent noxious-insect repelling effect and durability”.

Question: With `CC1CCC(C(C)(C)O)C(=O)C1C` (stereo not drawn) [8-hydroxy-2-methyl-p-menthan-3-one] as the molecule, how does the Percent repellency [1, 4] read?
Answer: Its Percent repellency is 30%.

Question: And the Percent repellency [1, 5]?
Answer: Its Percent repellency is 70%.

Question: And the Percent repellency [1, 6]?
Answer: Its Percent repellency is 94%.

Question: Which Percent repellency ([1]; content 0.05% (wt. %) in 40 wt. % ethanol aqueous solution) does the source give for `CC(C)C1CCC(C)C(CO)C1O` (stereo not drawn) [HMMO, 2-hydroxymethyl-menthol] here?
Answer: Its Percent repellency is 18%.

Question: And the Percent repellency [1, 4]?
Answer: The Percent repellency was 48%.

Question: And the Percent repellency [1, 5]?
Answer: Its Percent repellency is 78%.

Question: And the Percent repellency [1, 6]?
Answer: The Percent repellency was 92%.

Question: And the “noxious-insect repelling effect and durability (result in words)” value [1]?
Answer: Its value is “excellent noxious-insect repelling effect and durability”.

Question: With `CC(C)C1CCC(C)C(CO)C1=O` (stereo not drawn) [HMMT, 2-hydroxymethyl-menthone] as the molecule, how does the “noxious-insect repelling effect and durability (result in words)” value [1] read?
Answer: The value was “excellent noxious-insect repelling effect and durability”.

Question: Which “noxious-insect repelling effect and durability (result in words)” value [1] does the source give for `CC1CCC(C(C)(C)O)C(O)C1C` (stereo not drawn) [MMD, p-menthane-2-methyl-3,8-diol] here?
Answer: The value was “excellent noxious-insect repelling effect and durability”.

Question: With `C=C1C(C)CCC(C(C)(C)O)C1O` (stereo not drawn) [MMED, p-menthane-2-methylene-3,8-diol] as the molecule, how does the “noxious-insect repelling effect and durability (result in words)” value [1] read?
Answer: The value was “excellent noxious-insect repelling effect and durability”.

Question: Which “noxious-insect repelling effect and durability (result in words)” value [1] does the source give for `C=CCC1C(C)CCC(C(C)(C)O)C1O` (stereo not drawn) [p-menthane-2-(2-propenyl)-3,8-diol] here?
Answer: Its value is “excellent noxious-insect repelling effect and durability”.

Question: With p-menthane-2-ethyl-3,8-diol as the molecule, how does the “noxious-insect repelling effect and durability (result in words)” value [1] read?
Answer: Its value is “excellent noxious-insect repelling effect and durability”.

Question: With p-menthane-2-hexyl-3,8-diol as the molecule, how does the “noxious-insect repelling effect and durability (result in words)” value [1] read?
Answer: The value was “excellent noxious-insect repelling effect and durability”.
